Data reported in patent publication US11203613B2, “Peptidomimetic proteasome inhibitors” (CORNELL UNIVERSITY, priority 2017, dated 2021).

Biological target: Human Constitutive (Hu C-20S) β5 Active Subunit (Homo sapiens, UniProt P28074)
Experiment: IC50 determination, human constitutive 20S proteasome β5c (suc-LLVY-AMC hydrolysis)
Format: biochemical
Conditions: Table 3; IC50 against human constitutive β5 active subunit; read-out: Hu-C20S β5

IC50	SMILES
50 µM	CC(C)CCC(=O)N[C@@H](CC(=O)N1CCC[C@@H]1c1ccccc1)C(=O)N[C@H](C)c1nc2ccccc2[nH]1 [CEN-49, N—((S)-1-(((R)-1-(1H-Benzo[d]imidazol-2-yl)ethyl)amino)-1,4-dioxo-4-((R)-2-phenylpyrrolidin-1-yl)butan-2-yl)-4-methylpentanamide]
14.8 µM	C[C@H](NC(=O)[C@H](CC(=O)N1CCCC[C@@H]1C)NC(=O)OCc1ccccc1)c1nc2c(F)cccc2[nH]1 [CEN-50, Benzyl ((S)-1-(((S)-1-(4-Fluoro-1H-benzo[d]Imidazol-2-yl)ethyl)amino)-4-((S)-2-methylpiperidin-1-yl)-1,4-dioxobutan-2-yl)carbamate]
15 µM	C[C@H](NC(=O)[C@H](CC(=O)N1CCCC1C1CC1)NC(=O)C1CC2(COC2)C1)c1nc2cccc(F)c2[nH]1 (stereo partly drawn) [CEN-51, N-((2S)-4-(2-Cyclopropylpyrrolidin-1-yl)-1-(((S)-1-(7-fluoro-1H-benzo[d]imidazol-2-yl)ethyl)amino)-1,4-dioxobutan-2-yl)-2-oxaspiro[3.3]heptane-6-carboxamide]
17.2 µM	C[C@H](NC(=O)[C@H](CC(=O)N1CCCC[C@@H]1C)NC(=O)N(C)Cc1ccccc1)c1nc2c(F)cccc2[nH]1 [CEN-56, (S)-2-(3-Benzyl-3-methylureido)-N—((S)-1-(4-fluoro-1H-benzo[d]imidazol-2-yl)ethyl)-4-((S)-2-methylpiperidin-1-yl)-4-oxobutanamide]
28 µM	C[C@H](NC(=O)[C@H](CC(=O)N1CCCC[C@@H]1C)NC(=O)C1CC2(C1)CC(F)(F)C2)c1nc2c(F)cccc2[nH]1 [CEN-57, 6,6-Difluoro-N—((S)-1-(((S)-1-(4-fluoro-1H-benzo[d]imidazol-2-yl)ethyl)amino)-4-((S)-2-methylpiperidin-1-yl)-1,4-dioxobutan-2-yl)spiro[3.3]heptane-2-carboxamide]
10.7 µM	CC(C)CCS(=O)(=O)N[C@@H](CC(=O)N1CCC[C@@H]1c1ccccc1)C(=O)N[C@H](C)c1nc2ccccc2[nH]1 [CEN-60, (S)—N—((R)-1-(1H-Benzo[d]imidazol-2-yl)ethyl)-2-((3-methylbutyl)sulfonamido)-4-oxo-4-((R)-2-phenylpyrrolidin-1-yl)butanamide]
8.8 µM	C[C@H](NC(=O)[C@H](CC(=O)N1CCCC1C1CC1)NC(=O)C1CC2(C1)CC(F)(F)C2)c1nc2cccc(F)c2[nH]1 (stereo partly drawn) [CEN-61, N-((2S)-4-(2-Cyclopropylpyrrolidin-1-yl)-1-(((S)-1-(7-fluoro-1H-benzo[d]imidazol-2-yl)ethyl)amino)-1,4-dioxobutan-2-yl)-6,6-difluorospiro[3.3]heptane-2-carboxamide]
6.8 µM	C[C@H](NC(=O)[C@H](CC(=O)N1CCC[C@H]1c1ccccc1)NC(=O)C1CC2(COC2)C1)c1nc2cccc(F)c2[nH]1 [CEN-63, N—((S)-1-(((S)-1-(7-Fluoro-1H-benzo[d]imidazol-2-yl)ethyl)amino)-1,4-dioxo-4-((S)-2-phenylpyrrolidin-1-yl)butan-2-yl)-2-oxaspiro[3.3]heptane-6-carboxamide]
2.4 µM	O=C(N[C@@H](CC(=O)N1CCCC1C1CC1)C(=O)NC1(c2nc3cccc(F)c3[nH]2)CC1)C1CC2(C1)CC(F)(F)C2 (stereo partly drawn) [CEN-64, N-((2S)-4-(2-Cyclopropylpyrrolidin-1-yl)-1-((1-(7-fluoro-1H-benzo[d]imidazol-2-yl)cyclopropyl)amino)-1,4-dioxobutan-2-yl)-6,6-difluorospiro[3.3]heptane-2-carboxamide]
> 100 µM	C[C@H](NC(=O)[C@H](CC(=O)N1CCC[C@@H]1c1ccccc1)NC(=O)CCCC(F)(F)F)c1nc2ccccc2n1C [CEN-65, 5,5,5-Trifluoro-N—((S)-1-(((S)-1-(1-methyl-1H-benzo[d]imidazol-2-yl)ethyl)amino)-1,4-dioxo-4-((R)-2-phenylpyrrolidin-1-yl)butan-2-yl)pentanamide]
> 100 µM	C[C@H](NC(=O)[C@H](CC(=O)N1CCC[C@@H]1c1ccccc1)NC(=O)CCCC(F)(F)F)c1nc2ccccc2o1 [CEN-66, N—((S)-1-(((S)-1-(Benzo[d]oxazol-2-yl)ethyl)amino)-1,4-dioxo-4-((R)-2-phenylpyrrolidin-1-yl)butan-2-yl)-5,5,5-trifluoropentanamide]
> 100 µM	C[C@H](NC(=O)[C@H](CC(=O)N1CCC[C@@H]1c1ccccc1)NC(=O)CCCC(F)(F)F)c1nc2ccccc2s1 [CEN-67, N—((S)-1-(((S)-1-(Benzo[d]thiazol-2-yl)ethyl)amino)-1,4-dioxo-4-((R)-2-phenylpyrrolidin-1-yl)butan-2-yl)-5,5,5-trifluoropentanamide]
> 100 µM	C[C@H](NC(=O)[C@H](CC(=O)N1CCC[C@@H]1c1ccccc1)NC(=O)C1CC2(C1)CC(F)(F)C2)c1nc2ccccc2o1 [CEN-68, N—((S)-1-(((S)-1-(Benzo[d]oxazol-2-yl)ethyl)amino)-1,4-dioxo-4-((R)-2-phenylpyrrolidin-1-yl)butan-2-yl)-6,6-difluorospiro[3.3]heptane-2-carboxamide]
> 100 µM	Cc1ccc(S(=O)(=O)N[C@@H](CC(=O)NC(C)(C)C)C(=O)NC2(c3nc4c(F)cccc4[nH]3)CC2)cc1 [CEN-69, (S)—N^4-(tert-Butyl)-N^1-(1-(4-fluoro-1H-benzo[d]Imidazol-2-yl)cyclopropyl)-2-((4-methylphenyl)sulfonamido)succinamide]
> 100 µM	Cc1ccc(S(=O)(=O)N[C@@H](CCC(=O)NC(C)(C)C)C(=O)NC2(c3nc4c(F)cccc4[nH]3)CC2)cc1 [CEN-70, (S)—N^5-(tert-Butyl)-N^1-(1-(4-fluoro-1H-benzo[d]Imidazol-2-yl)cyclopropyl)-2-((4-methylphenyl)sulfonamido)pentanediamide]
> 100 µM	Cc1ccc(S(=O)(=O)N[C@H](C(=O)N[C@@H](C)c2nc3cccc(F)c3[nH]2)[C@@H](C)O)cc1 [CEN-71, (2S,3R)—N—((S)-1-(7-Fluoro-1H-benzo[d]imidazol-2-yl)ethyl)-3-hydroxy-2-((4-methylphenyl)sulfonamido)butanamide]
> 100 µM	C[C@H](NC(=O)[C@@H](NC(=O)CCc1ccc(F)cc1)[C@@H](C)O)c1nc2c(F)cccc2[nH]1 [CEN-72, (2S,3R)—N—((S)-1-(4-Fluoro-1H-benzo[d]imidazol-2-yl)ethyl)-2-(3-(4-fluorophenyl)propanamido)-3-hydroxybutanamide]
> 100 µM	CC(C)(C)NC(=O)CC[C@H](NC(=O)CCc1ccc(F)cc1)C(=O)NC1(c2nc3cccc(F)c3[nH]2)CC1 [CEN-73, (S)—N5-(tert-Butyl)-N1-(1-(7-fluoro-1H-benzo[d]Imidazol-2-yl)cyclopropyl)-2-(3-(4-fluorophenyl)propanamido)pentanediamide]
14.2 µM	C[C@H](NC(=O)[C@@H](N)CC(=O)N1CCCC[C@@H]1C)c1ncc(-c2ccc(F)cc2F)[nH]1 [CEN-76, (S)-2-Amino-N—((S)-1-(5-(2,4-difluorophenyl)-1H-imidazol-2-yl)ethyl)-4-((S)-2-methylpiperidin-1-yl)-4-oxobutanamide]

SMILES	IC50
Cc1cc(C(=O)N[C@@H](CC(=O)N2CCC[C@@H]2c2ccccc2)C(=O)NC(C)c2nc3ccccc3[nH]2)no1 (stereo partly drawn) [CEN-52, N-((2S)-1-((1-(1H-Benzo[d]imidazol-2-yl)ethyl)amino)-1,4-dioxo-4-((R)-2-phenylpyrrolidin-1-yl)butan-2-yl)-5-methylisoxazole-3-carboxamide]	7.5 µM
Cc1cc(C(=O)N[C@@H](CC(=O)N2CCC[C@@H]2c2ccccc2)C(=O)N[C@@H](C)c2nc3ccccc3[nH]2)no1 [CEN-53, N—((S)-1-(((S)-1-(1H-Benzo[d]imidazol-2-yl)ethyl)amino)-1,4-dioxo-4-((R)-2-phenylpyrrolidin-1-yl)butan-2-yl)-5-methylisoxazole-3-carboxamide]	9.7 µM
C[C@H](NC(=O)[C@H](CC(=O)N1CCC[C@@H]1c1ccccc1)NC(=O)CCC(C)(C)C)c1nc2ccccc2[nH]1 [CEN-54, N—((S)-1-(((S)-1-(1H-Benzo[d]imidazol-2-yl)ethyl)amino)-1,4-dioxo-4-((R)-2-phenylpyrrolidin-1-yl)butan-2-yl)-4,4-dimethylpentanamide]	16.6 µM
C[C@H](NC(=O)[C@H](CC(=O)N1CCCC[C@@H]1C)NC(=O)[C@H]1C[C@@H]1c1ccccc1)c1nc2c(F)cccc2[nH]1 [CEN-55, (1S,2S)—N—((S)-1-(((S)-1-(4-Fluoro-1H-benzo[d]Imidazol-2-yl)ethyl)amino)-4-((S)-2-methylpiperidin-1-yl)-1,4-dioxobutan-2-yl)-2-phenylcyclopropane-1-carboxamide]	12.3 µM
CC(C)CCS(=O)(=O)N[C@@H](CC(=O)N1CCC[C@@H]1c1ccccc1)C(=O)NC(C)c1nc2ccccc2[nH]1 (stereo partly drawn) [CEN-58, (2S)—N-(1-(1H-Benzo[d]imidazol-2-yl)ethyl)-2-((3-methylbutyl)sulfonamido)-4-oxo-4-((R)-2-phenylpyrrolidin-1-yl)butanamide]	13.9 µM
CC(C)CCS(=O)(=O)N[C@@H](CC(=O)N1CCC[C@@H]1c1ccccc1)C(=O)N[C@@H](C)c1nc2ccccc2[nH]1 [CEN-59, (S)—N—((S)-1-(1H-Benzo[d]imidazol-2-yl)ethyl)-2-((3-methylbutyl)sulfonamido)-4-oxo-4-((R)-2-phenylpyrrolidin-1-yl)butanamide]	10 µM
C[C@H](NC(=O)[C@@H](N)CC(=O)N1CCC[C@@H]1c1ccccc1)c1ncc(-c2ccccc2F)[nH]1 [CEN-74, (S)-2-Amino-N—((S)-1-(5-(2-fluorophenyl)-1H-imidazol-2-yl)ethyl)-4-oxo-4-((R)-2-phenylpyrrolidin-1-yl)butanamide]	94 µM
Cc1cc(C(=O)N[C@@H](CC(=O)N2CCC[C@@H]2c2ccccc2)C(=O)N[C@@H](C)c2ncc(-c3ccccc3F)[nH]2)no1 [CEN-75, N—((S)-1-(((S)-1-(5-(2-Fluorophenyl)-1H-imidazol-2-yl)ethyl)amino)-1,4-dioxo-4-((R)-2-phenylpyrrolidin-1-yl)butan-2-yl)-5-methylisoxazole-3-carboxamide]	> 100 µM
CC(C)CCC(=O)N[C@@H](CC(=O)N1CCCC1)C(=O)N[C@@H](C)c1ncc(-c2ccc(F)cc2F)[nH]1 [CEN-77, N—((S)-1-(((S)-1-(5-(2,4-Difluorophenyl)-1H-imidazol-2-yl)ethyl)amino)-1,4-dioxo-4-(pyrrolidin-1-yl)butan-2-yl)-4-methylpentanamide]	10.4 µM
